Laboratory results reported in PMC11357256, “Selectivity Screening and Structure–Cytotoxic Activity Observations of Selected Oleanolic Acid (OA)-Type Saponins from the Amaranthaceae Family on a Wiade Panel of Human Cancer Cell Lines” (Molecules, 2024).

Key:
[1] = tested on: Caco-2; assay: MTT cell viability assay, Caco-2 colon cancer cells; assay type: cell-based; conditions: Homo sapiens
Source text: (§1) Cell lines used in the study were grouped as follows: skin panel (melanomas: HTB140, derived from metastatic site: lymph node, ATCC Hs 294 T; malignant A375, ATCC CRL-1619; stage I primary WM793, RRID:CVCL 8787; skin keratinocytes HaCaT); prostate panel (prostate carcinomas: Du145, derived from metastatic site: brain, ATCC HTB-81; grade IV PC3, derived from metastatic site: bone, ATCC CRL-1435, LNCaP, derived from the metastatic site: lymph node, ATCC CRL-1740; prostate epithelial, PNT2, ECACC 95012613); gastrointestinal panel (colorectal adenocarcinomas: Caco2, ATCC HTB-37, HT29, ATCC HTB-38, DLD-1, ATCC CCL-221, HCT116, ATCC CCL-247, and colon epithelial cells CCD 841 CoN, ATCC CRL-1790; hepatocellular carcinoma HepG2, ATCC HB-8065); thyroid panel (follicular thyroid carcinoma FTC133, ECACC 9406090, undifferentiated thyroid carcinoma 8505C, ECACC 94090184, papillary thyroid carcinoma TPC-1, SCC147, normal thyroid follicular epithelial Nthy-ori 3–1, ECACC 90011609); and breast panel (ER-positive breast adenocarcinoma MCF7, ATCC HTB-22; ER-negative breast adenocarcinoma MDA-MB-231, ATCC HTB-26; breast epithelial MCF10A, ATCC CRL-10317). Cells were grown under standard conditions (37 °C, 5% CO2, relative humidity), and culture media (DMEM/F12 for PNT2, WM 793, HT29, PC3, FTC133, 8505 C, MDA-MB-231, TPC-1; DMEM Low Glucose for DU145; DMEM High Glucose for HTB140, A375, HaCaT; MEM with NEAA for Caco2 and MCF7; RPMI1640 with sodium pyruvate for LNCaP; DMEM/F12 with 20 ng/mL epidermal growth factor (EGF), 10 μg/mL insulin, 0.5 μg/mL hydrocortisone, 100 ng/mL cholera toxin) for MCF10A) supplemented with 10% fetal bovine serum (FBS) or 5% donor horse serum for MCF10A, and 1% antibiotics solution (10,000 U penicillin and 10 mg streptomycin/mL) […], as previously described. All cell lines, culture media, and supplements were from Sigma-Aldrich (Germany).
(§2) The cells were seeded in 96-well plates (1.5 × 10^4 cells/well). After 24 h, fresh medium was added, containing the tested compounds (0.5–100 μg/mL) and incubated for 24 or 48 h. Cell viability was determined by MTT assay, according to the manufacturer’s instructions, as described previously. Each experiment was performed in triplicate. The absorbance was measured at 570 nm using a Biotek Synergy microplate reader (BioTek Instruments Inc., Winooski, VT, USA). Cell viability was expressed as a percent of control (untreated cells). Doxorubicin was used as a reference drug.

[2] = tested on: WM793; assay: MTT cell viability assay, WM793 primary melanoma cells; assay type: cell-based, human; conditions: for IC50: Homo sapiens
Source text: as §1, §2
(§3) The selectivity index (SI) was calculated from the following formula:SI = IC50 of compound in a normal cell line/IC50 of compound in cancer cell line.IC50, half maximal inhibitory concentration, is a concentration required to kill 50% of the cells.

[3] = tested on: MDA-MB-231; assay: MTT cell viability assay, MDA-MB-231 breast adenocarcinoma cells; assay type: cell-based; conditions: Homo sapiens
Source text: as §1, §2

[4] = tested on: HaCaT; assay: MTT cell viability assay, HaCaT keratinocytes; assay type: cell-based; conditions: Homo sapiens
Source text: as §1, §2

[5] = tested on: HepG2; assay: MTT cell viability assay, HepG2 hepatocellular carcinoma cells; assay type: cell-based; conditions: Homo sapiens
Source text: as §1, §2

[6] = tested on: PC3; assay: MTT cell viability assay, PC3 prostate carcinoma cells; assay type: cell-based; conditions: Homo sapiens, PC-3
Source text: as §1, §2

[7] = tested on: Du-145; assay: MTT cell viability assay, Du-145 prostate carcinoma cells; assay type: cell-based; conditions: Homo sapiens
Source text: as §1, §2

[8] = tested on: A375; assay: MTT cell viability assay, A375 malignant melanoma cells; assay type: cell-based, human; conditions: for IC50: Homo sapiens, A-375
Source text: as §1, §2, §3

[9] = tested on: PNT2; assay: MTT cell viability assay, PNT2 normal prostate epithelial cells; assay type: cell-based; conditions: Homo sapiens
Source text: as §1, §2

[10] = tested on: CCD 841 CoN; assay: MTT cell viability assay, CCD 841 CoN normal colon epithelial cells; assay type: cell-based; conditions: Homo sapiens
Source text: as §1, §2

[11] = tested on: HT29; assay: MTT cell viability assay, HT29 colorectal adenocarcinoma cells; assay type: cell-based; conditions: Homo sapiens, HT-29
Source text: as §1, §2

[12] = tested on: DLD-1; assay: MTT cell viability assay, DLD-1 colon cancer cells; assay type: cell-based; conditions: Homo sapiens
Source text: as §1, §2

[13] = tested on: Nthy-ori 3-1; assay: MTT cell viability assay, Nthy-ori 3-1 normal thyroid epithelial cells; assay type: cell-based; conditions: Homo sapiens
Source text: as §1, §2

[14] = tested on: FTC133; assay: MTT cell viability assay, FTC133 follicular thyroid carcinoma cells; assay type: cell-based, human; conditions: for IC50: Homo sapiens, FTC-133
Source text: as §1, §2, §3

[15] = tested on: TPC-1; assay: MTT cell viability assay, TPC-1 papillary thyroid carcinoma cells; assay type: cell-based, human; conditions: for IC50: Homo sapiens, TPC1
Source text: as §1, §2, §3

[16] = tested on: 8505C; assay: MTT cell viability assay, 8505C undifferentiated thyroid carcinoma cells; assay type: cell-based, human; conditions: for IC50: Homo sapiens, 8505C; for Selectivity Index (SI): IC50 Nthy-ori 3-1 / IC50 8505C
Source text: as §1, §2, §3

[17] = tested on: LNCaP; assay: MTT cell viability assay, LNCaP prostate adenocarcinoma cells; assay type: cell-based; conditions: Homo sapiens
Source text: as §1, §2

[18] = tested on: MCF10A; assay: MTT cell viability assay, MCF10A normal breast epithelial cells; assay type: cell-based; conditions: Homo sapiens, MCF-10A
Source text: as §1, §2

[19] = tested on: HCT116; assay: MTT cell viability assay, HCT116 colon cancer cells; assay type: cell-based; conditions: Homo sapiens, HCT-116
Source text: as §1, §2

[20] = tested on: MCF7; assay: MTT cell viability assay, MCF7 breast adenocarcinoma cells; assay type: cell-based; conditions: Homo sapiens
Source text: as §1, §2

[21] = tested on: HTB-140; assay: MTT cell viability assay, HTB-140 metastatic melanoma cells; assay type: cell-based, human; conditions: for IC50: Homo sapiens
Source text: as §1, §2, §3

SMILES: CC1(C)CCC2(C(=O)O)CCC3(C)C(=CCC4C5(C)CCC(OC6OC(C(=O)O)C(O)C(OC7OCC(O)C(O)C7O)C6O)C(C)(C)C5CCC43C)C2C1 [MIc, oleanolic acid-3-O-[β-D-xylopyranosyl(1→3)-β-D-glucuronopyranoside]]
- IC50 ([1]; Caco-2, 24 h): 7 µg/mL
- IC50 ([1]; Caco-2, 48 h): 4.3 µg/mL
- IC50 ([2]; WM793, 24 h): 2 µg/mL
- IC50 ([2]; WM793, 48 h): 1 µg/mL
- Selectivity Index (SI) ([2]; IC50 HaCaT / IC50 WM793, 24 h): 2.6
- Selectivity Index (SI) ([2]; IC50 HaCaT / IC50 WM793, 48 h): 2.7
- IC50 ([3]; MDA-MB-231, 24 h): 52.2 µg/mL
- IC50 ([3]; MDA-MB-231, 48 h): 16.4 µg/mL
- IC50 ([4]; 24 h): 5.3 µg/mL
- IC50 ([4]; 48 h): 2.7 µg/mL
- IC50 ([5]; HepG2, 24 h): 12.5 µg/mL
- IC50 ([5]; HepG2, 48 h): 9.5 µg/mL
- IC50 ([6]; PC3, 24 h): 5.5 µg/mL
- IC50 ([6]; PC3, 48 h): 3.4 µg/mL
- IC50 ([7]; DU-145, 24 h): 5.4 µg/mL
- IC50 ([7]; DU-145, 48 h): 2.8 µg/mL
- IC50 ([8]; A375, 24 h): 1.9 µg/mL
- IC50 ([8]; A375, 48 h): 0.9 µg/mL
- Selectivity Index (SI) ([8]; IC50 HaCaT / IC50 A375, 24 h): 2.7
- IC50 ([9]; 24 h): > 100 µg/mL
- IC50 ([9]; 48 h): > 100 µg/mL
- IC50 ([10]; 24 h): > 100 µg/mL
- IC50 ([10]; 48 h): > 100 µg/mL
- IC50 ([11]; HT29, 24 h): 4.2 µg/mL
- IC50 ([11]; HT29, 48 h): 2.9 µg/mL
- IC50 ([12]; DLD-1, 24 h): 16 µg/mL
- IC50 ([12]; DLD-1, 48 h): 8 µg/mL
- IC50 ([13]; 24 h): 86.2 µg/mL
- IC50 ([13]; 48 h): 64.4 µg/mL
- IC50 ([14]; FTC133, 24 h): 3.5 µg/mL
- IC50 ([14]; FTC133, 48 h): 2.1 µg/mL
- Selectivity Index (SI) ([14]; IC50 Nthy-ori 3-1 / IC50 FTC133, 24 h): 24.85
- Selectivity Index (SI) ([14]; IC50 Nthy-ori 3-1 / IC50 FTC133, 48 h): 30.7
- IC50 ([15]; TPC-1, 24 h): 39 µg/mL
- IC50 ([15]; TPC-1, 48 h): 39 µg/mL
- Selectivity Index (SI) ([15]; IC50 Nthy-ori 3-1 / IC50 TPC-1, 24 h): 2.2
- Selectivity Index (SI) ([15]; IC50 Nthy-ori 3-1 / IC50 TPC-1, 48 h): 1.6
- IC50 ([16]; 24 h): 10.6 µg/mL
- IC50 ([16]; 48 h): 5.2 µg/mL
- Selectivity Index (SI) ([16]; 24 h): 8.2
- Selectivity Index (SI) ([16]; 48 h): 12.2
- IC50 ([17]; 24 h): > 100 µg/mL
- IC50 ([17]; 48 h): > 100 µg/mL
- IC50 ([18]; 24 h): > 100 µg/mL
- IC50 ([18]; 48 h): > 100 µg/mL
- IC50 ([19]; HCT116, 24 h): 9.4 µg/mL
- IC50 ([19]; HCT116, 48 h): 8.3 µg/mL
- IC50 ([20]; MCF7, 24 h): > 100 µg/mL
- IC50 ([20]; MCF7, 48 h): 29.2 µg/mL
- IC50 ([21]; HTB-140, 24 h): 7.8 µg/mL
- IC50 ([21]; HTB-140, 48 h): 3 µg/mL
- Selectivity Index (SI) ([21]; IC50 HaCaT / IC50 HTB-140, 24 h): 0.7
